US20200179428A1, “CYCLIC PHOSPHATE SUBSTITUTED NUCLEOSIDE DERIVATIVES AND METHODS OF USE THEREOF FOR THE TREATMENT OF VIRAL DISEASES” (priority 2016, published 2020)
pEC50: −log10 of the molar value. Like-named read-outs stand apart in the source and are kept apart here.

Columns and labels:
replicon cells (1b-Con1) = assay: Replicon activity assay (replicon RNA level by real-time RT-PCR, Taqman); type: cell-based; conditions: HCV replicon genotype 1b, read-out: EC50 (1b) Range
Method: (§1) To measure cell-based anti-HCV activity of the compounds of the present invention, replicon cells (1b-Con1) are seeded at 5000 cells/well in 96-well plates one day prior to treatment with a compound of the invention. Various concentrations of a test compound of the invention in DMSO are then added to the replicon cells, with the final concentration of DMSO at 0.5% and fetal bovine serum at 10% in the assay media. Cells are harvested three days post-dosing, and the replicon RNA level is determined using real-time RT-PCR (Taqman assay) with GAPDH RNA as endogenous control. EC50 values are calculated from experiments with 10 serial twofold dilutions of the inhibitor in triplicate. To measure cytotoxicity in replicon cells of an inhibitor, an MTS assay is performed according to the manufacturer's protocol for CellTiter 96 Aqueous One Solution Cell Proliferation Assay (Promega, Cat # G3580) three days post dosing on cells treated identically as in replicon activity assays. […] Cytotoxicity in other types of cells may be measured using the same MTS protocol.

[1] = Cytotoxicity MTS assay (CellTiter 96 Aqueous One Solution) in replicon cells; type: cell-based; conditions: HCV replicon cells (1b-Con1); EDU; read-out: CC50 (EDU) Range
Method: as §1

| Structure (SMILES) | pEC50 (replicon cells (1b-Con1); Hepatitis C virus) | CC50 at 3 days [1] | pEC50 (replicon cells (1b-Con1)) |
| --- | --- | --- | --- |
| C#C[C@]1(C)[C@@H]2O[P@](=O)(OCCC(CC)C(=O)OC3CCCC3)OC[C@H]2O[C@H]1n1ccc(=O)[nH]c1=O (stereo partly drawn) [Compound 30B] | < 5.00 | > 50 µM | – |
| C#C[C@]1(C)[C@@H]2OP(=O)(OCCC(C)C(=O)OC3CCCC3)OC[C@H]2O[C@H]1n1ccc(=O)[nH]c1=O (single isomer, unassigned) [Compound 2B] | ≥ 6.60 | > 50 µM | – |
| CC(C)OC(=O)CS(=O)(=O)CCO[P@@]1(=O)OC[C@H]2O[C@@H](n3ccc(=O)[nH]c3=O)[C@](C)(N)[C@@H]2O1 [Compound 58A] | < 5.00 | < 50 µM | – |
| CC(C)OC(=O)C(C)CCCO[P@]1(=O)OC[C@H]2O[C@@H](n3ccc(=O)[nH]c3=O)[C@](C)(N)[C@@H]2O1 (stereo partly drawn) [Compound 34B] | < 5.00 | > 50 µM | – |
| CC(CCO[P@]1(=O)OC[C@H]2O[C@@H](n3ccc(=O)[nH]c3=O)[C@](C)(N)[C@@H]2O1)C(=O)OC1CCCCC1 (stereo partly drawn) [Compound 78B] | 5.00 to 6.00 | > 50 µM | – |
| C#C[C@]1(C)[C@@H]2OP(=O)(OCCC(C(=O)OC(C)C)C(=O)OC(C)C)OC[C@H]2O[C@H]1n1ccc(=O)[nH]c1=O (single isomer, unassigned) [Compound 36A] | – | > 50 µM | 6.00 to 6.60 |
| COC(=O)N[C@@H](CCO[P@]1(=O)OC[C@H]2O[C@@H](n3ccc(=O)[nH]c3=O)[C@](C)(N)[C@@H]2O1)C(=O)OC(C)C [Compound 42B] | < 5.00 | > 50 µM | – |
| CC(CCO[P@@]1(=O)OC[C@H]2O[C@@H](n3ccc(=O)[nH]c3=O)[C@](C)(N)[C@@H]2O1)CC(=O)OC(C)C (stereo partly drawn) [Compound 21A] | < 5.00 | > 50 µM | – |
| CC(C)OC(=O)COCCO[P@]1(=O)OC[C@H]2O[C@@H](n3ccc(=O)[nH]c3=O)[C@](C)(N)[C@@H]2O1 [Compound 69B] | < 5.00 | > 50 µM | – |
| C#C[C@]1(C)[C@@H]2O[P@@](=O)(OCCC(CC)C(=O)OC3CCCC3)OC[C@H]2O[C@H]1n1ccc(=O)[nH]c1=O (stereo partly drawn) [Compound 30A] | < 5.00 | > 50 µM | – |
| C#C[C@]1(C)[C@@H]2O[P@](=O)(OC[C@H](CC(=O)OC(C)C)OC)OC[C@H]2O[C@H]1n1ccc(=O)[nH]c1=O [Compound 60B] | < 5.00 | > 50 µM | – |
| C#C[C@]1(C)[C@@H]2O[P@@](=O)(OCC[C@H](C)C(=O)OC(C)C)OC[C@H]2O[C@H]1n1cnc2c(N)ncnc21 [Compound 72A] | < 5.00 | > 50 µM | – |
| CC(C)OC(=O)C(C)CCOP1(=O)OC[C@H]2O[C@@H](n3ccc(=O)[nH]c3=O)[C@](C)(Cl)[C@@H]2O1 (single isomer, unassigned) [Compound 39B1] | ≥ 6.60 | > 50 µM | – |
| CC(C)OC(=O)[C@@H](C)CCOP1(=O)OC[C@H]2O[C@@H](n3ccc(=O)[nH]c3=O)[C@](C)(Cl)[C@@H]2O1 (single isomer, unassigned) [Compound 39A1] | ≥ 6.60 | > 50 µM | – |
| CC(C)OC(=O)C(C)(C)CO[P@@]1(=O)OC[C@H]2O[C@@H](n3ccc(=O)[nH]c3=O)[C@](C)(C#N)[C@@H]2O1 [Compound 16A] | < 5.00 | > 50 µM | – |
| CC(C)OC(=O)[C@@H](C)CCO[P@]1(=O)OC[C@H]2O[C@@H](n3cnc4c(N)ncnc43)[C@](C)(N)[C@@H]2O1 [Compound 73B] | 5.00 to 6.00 | > 50 µM | – |
| C#C[C@]1(C)[C@@H]2O[P@](=O)(OC[C@H](NC(=O)OC)C(=O)OC(C)C)OC[C@H]2O[C@H]1n1ccc(=O)[nH]c1=O [Compound 40B] | < 5.00 | > 50 µM | – |
| CC(C)OC(=O)C(CCO[P@@]1(=O)OC[C@H]2O[C@@H](n3ccc(=O)[nH]c3=O)[C@](C)(N)[C@@H]2O1)c1ccccc1 (stereo partly drawn) [Compound 33A] | < 5.00 | > 50 µM | – |
| C#C[C@]1(C)[C@@H]2O[P@](=O)(OCCC(CC)C(=O)OC(C)C)OC[C@H]2O[C@H]1n1ccc(=O)[nH]c1=O (stereo partly drawn) [Compound 31B] | < 5.00 | > 50 µM | – |
| C#C[C@]1(C)[C@@H]2O[P@](=O)(OCC(CC(=O)OC(C)C)N(C)C(=O)OC(C)(C)C)OC[C@H]2O[C@H]1n1ccc(=O)[nH]c1=O (stereo partly drawn) [Compound 74B] | < 5.00 | > 50 µM | – |
| CCOC(=O)C1(CCO[P@@]2(=O)OC[C@H]3O[C@@H](n4ccc(=O)[nH]c4=O)[C@](C)(N)[C@@H]3O2)CC1 [Compound 28A] | < 5.00 | > 50 µM | – |
| C#C[C@@]1(O)[C@@H]2O[P@@](=O)(OCCC(C(=O)OC(C)C)C(=O)OC(C)C)OC[C@H]2O[C@H]1n1ccc(=O)[nH]c1=O [Compound 59A] | 6.00 to 6.60 | > 50 µM | – |
| C#C[C@]1(C)[C@@H]2O[P@](=O)(OC[C@H](F)CC(=O)OC(C)C)OC[C@H]2O[C@H]1n1ccc(=O)[nH]c1=O [Compound 66B] | 6.00 to 6.60 | > 50 µM | – |

| Structure (SMILES) | pEC50 (replicon cells (1b-Con1); Hepatitis C virus) | CC50 at 3 days [1] | pEC50 (replicon cells (1b-Con1)) |
| --- | --- | --- | --- |
| COC(=O)N[C@H](CO[P@@]1(=O)OC[C@H]2O[C@@H](n3ccc(=O)[nH]c3=O)[C@](C)(C#N)[C@@H]2O1)C(=O)OC(C)C [Compound 41A] | < 5.00 | > 50 µM | – |
| CC(C)OC(=O)C1CC1CO[P@@]1(=O)OC[C@H]2O[C@@H](n3ccc(=O)[nH]c3=O)[C@](C)(N)[C@@H]2O1 (stereo partly drawn) [Compound 47A] | < 5.00 | > 50 µM | – |
| CC(=O)O[C@@H](CO[P@@]1(=O)OC[C@H]2O[C@@H](n3ccc(=O)[nH]c3=O)[C@](C)(N)[C@@H]2O1)[C@@H](OC(C)=O)C(=O)OC(C)C [Compound 54A] | < 5.00 | > 50 µM | – |
| CC(CCO[P@@]1(=O)OC[C@H]2O[C@@H](n3ccc(=O)[nH]c3=O)[C@](C)(N)[C@@H]2O1)C(=O)OC1CCCCC1 (stereo partly drawn) [Compound 78A] | < 5.00 | > 50 µM | – |
| CC(C)OC(=O)C(CCO[P@]1(=O)OC[C@H]2O[C@@H](n3cnc4c(N)ncnc43)[C@](C)(Cl)[C@@H]2O1)C(=O)OC(C)C [Compound 70B] | 5.00 to 6.00 | > 50 µM | – |
| C#C[C@]1(C)[C@@H]2O[P@@](=O)(OCCC(C)(C)C(=O)OC(C)C)OC[C@H]2O[C@H]1n1ccc(=O)[nH]c1=O [Compound 20A] | < 5.00 | > 50 µM | – |
| CO[C@H](CCO[P@]1(=O)OC[C@H]2O[C@@H](n3ccc(=O)[nH]c3=O)[C@](C)(N)[C@@H]2O1)C(=O)OC(C)C [Compound 45B] | < 5.00 | > 50 µM | – |
| C#C[C@]1(C)[C@@H]2O[P@@](=O)(OC[C@@H](F)CC(=O)OC(C)C)OC[C@H]2O[C@H]1n1ccc(=O)[nH]c1=O [Compound 64A] | 6.00 to 6.60 | > 50 µM | – |
| CC(C)OC(=O)[C@H](C)CCOP1(=O)OC[C@H]2O[C@@H](n3cnc4c(N)ncnc43)[C@](C)(F)[C@@H]2O1 (stereo partly drawn) [Compound 88A] | ≥ 6.60 | > 50 µM | – |
| C#C[C@]1(C)[C@@H]2O[P@](=O)(OCC(C)(C)CC(=O)OC(C)C)OC[C@H]2O[C@H]1n1ccc(=O)[nH]c1=O [Compound 18B] | < 5.00 | > 50 µM | – |
| C#C[C@@]1(O)[C@@H]2OP(=O)(OCC[C@@H](OC)C(=O)OC(C)C)OC[C@H]2O[C@H]1n1ccc(=O)[nH]c1=O (stereo partly drawn) [Compound 76] | ≥ 6.60 | > 50 µM | – |
| C#C[C@]1(C)[C@@H]2OP(=O)(OCCC(C)C(=O)OC3CCCC3)OC[C@H]2O[C@H]1n1ccc(=O)[nH]c1=O (stereo partly drawn) [Compound 2A] | 5.00 to 6.00 | > 50 µM | – |
| C#C[C@]1(C)[C@@H]2O[P@](=O)(OCC[C@H](C)C(=O)OC(C)C)OC[C@H]2O[C@H]1n1cnc2c(N)ncnc21 [Compound 72B] | 6.00 to 6.60 | > 50 µM | – |
| C#C[C@]1(C)[C@@H]2O[P@](=O)(OCCC(CO)C(=O)OC(C)C)OC[C@H]2O[C@H]1n1ccc(=O)[nH]c1=O (stereo partly drawn) [Compound 44B] | < 5.00 | > 50 µM | – |
| C#C[C@]1(C)[C@@H]2O[P@@](=O)(OCCC(C)C(=O)OC3CCCCC3)OC[C@H]2O[C@H]1n1ccc(=O)[nH]c1=O (stereo partly drawn) [Compound 77A] | 5.00 to 6.00 | > 50 µM | – |
| C#C[C@]1(C)[C@@H]2O[P@](=O)(OCC[C@H](OC)C(=O)OC(C)C)OC[C@H]2O[C@H]1n1ccc(=O)[nH]c1=O [Compound 56B] | 6.00 to 6.60 | > 50 µM | – |
| C#C[C@]1(C)[C@@H]2O[P@@](=O)(OC[C@H](F)CC(=O)OC(C)C)OC[C@H]2O[C@H]1n1ccc(=O)[nH]c1=O [Compound 66A] | < 5.00 | > 50 µM | – |
| CC(CCOP1(=O)OC[C@H]2O[C@@H](n3ccc(=O)[nH]c3=O)[C@](C)(N)[C@@H]2O1)C(=O)OC1CCCC1 (single isomer, unassigned) [Compound 14A1] | – | > 50 µM | < 5.00 |
| CCC(CCO[P@]1(=O)OC[C@H]2O[C@@H](n3ccc(=O)[nH]c3=O)[C@](C)(N)[C@@H]2O1)C(=O)OC(C)C (stereo partly drawn) [Compound 23B] | < 5.00 | > 50 µM | – |
| CCOC(=O)C(C)CCOP1(=O)OC[C@H]2O[C@@H](n3ccc(=O)[nH]c3=O)[C@](C)(N)[C@@H]2O1 (single isomer, unassigned) [Compound 5A] | – | > 50 µM | 5.00 to 6.00 |
| CO[C@@H](CO[P@@]1(=O)OC[C@H]2O[C@@H](n3ccc(=O)[nH]c3=O)[C@](C)(N)[C@@H]2O1)CC(=O)OC(C)C [Compound 63A] | < 5.00 | > 50 µM | – |
| CC(C)OC(=O)C(CCO[P@]1(=O)OC[C@H]2O[C@@H](n3ccc(=O)[nH]c3=O)[C@](C)(N)[C@@H]2O1)c1ccccc1 (stereo partly drawn) [Compound 33B] | < 5.00 | > 50 µM | – |
